Two compounds from patent US20130287870A1, “NOVEL USES FOR TRADITIONAL CHINESE MEDICINE” (priority 2012, published 2013) can be followed below.

Each structure is given as a SMILES string.

For test [1], the target named is T1, KATP channels in INS-R9 insulinoma cells (Rattus norvegicus, UniProt P70673+Q09429).
T1 construct: Insulinoma cells naturally have KATP channels; endogenous in cells; host or cells: rat INS-R9 insulinoma cells
The test can be described thus: Whole cell patch clamp recording of endogenous KATP currents in INS-R9 cells. It is filed as cell-based. The settings on record: 10 μM pinacidil applied with MLC901 1 μg/mL.
Procedure: All electrophysiological experiments were done on INS-R9 transfected cells seeded at a density of 20,000 cells/35-mm dish. Transfected cells were used 48-72 h after transfection. […] All current amplitudes are expressed in current densities. Results are expressed as mean and standard error of the mean (SEM). […] For le currents the bath solution contained (in mM) 150 NaCl, 5 KCl, 3 MgCl2, 1 CaCl2 and 10 HEPES adjusted to pH 7.4 with NaOH. […] For Na^+ currents, the bath solution contained (in mM) 150 NaCl, 2 KCl, 1 MgCl2, 1.5 CaCl2, 10 glucose and 10 HEPES adjusted to pH 7.4 with NaOH. […] All experiments were performed at room temperature (21-22° c.). Stimulation protocols and data acquisition were carried out using a microcomputer (Dell Pentium) witch used a commercial software and hardware (pClamp 8.2). K^+ Currents were recorded by voltage clamp steps to membrane potentials of −140 to +80 mV for neurons or −100 to +60 mV for transfected cell lines in 20 mV steps applied from a holding potential of −80 mV. […] Current amplitudes were evaluated at the end of the stimulation pulses. Na^+ currents were recorded by voltage clamp steps to membrane potentials of −80 to +50 mV in 5 mV steps applied from a holding potential of −100 mV. The duration of a depolarization pulse was 100 ms, and the pulse cycling rate was 2 s. Current amplitudes were evaluated at the peak of the stimulation pulses. […]

For test [2], the target named is KATP channel (Kir 6.2 and SUR 1) (Homo sapiens, UniProt Q09428+Q14654). Briefly: Two-electrode voltage clamp of KATP channels expressed in Xenopus oocytes, preactivated by sodium azide. It is filed as cell-based. The settings on record: sodium azide 3 mM; test substance 10 μM. (In general: Two-electrode voltage clamp is typically applied to oocytes expressing channels or transporters.)
KATP channel (Kir 6.2 and SUR 1), sequence (Q14654 whole entry): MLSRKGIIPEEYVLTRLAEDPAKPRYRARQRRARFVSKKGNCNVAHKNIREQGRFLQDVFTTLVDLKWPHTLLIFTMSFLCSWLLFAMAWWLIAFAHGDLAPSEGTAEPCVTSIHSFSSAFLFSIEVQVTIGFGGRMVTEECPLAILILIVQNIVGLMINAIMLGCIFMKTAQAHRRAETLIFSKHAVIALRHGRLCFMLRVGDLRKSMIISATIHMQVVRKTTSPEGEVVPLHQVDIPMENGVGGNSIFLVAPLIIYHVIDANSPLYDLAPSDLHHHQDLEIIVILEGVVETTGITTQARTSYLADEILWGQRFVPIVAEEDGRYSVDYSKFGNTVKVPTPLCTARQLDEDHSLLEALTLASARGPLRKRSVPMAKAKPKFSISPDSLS
KATP channel (Kir 6.2 and SUR 1), sequence (Q09428 whole entry): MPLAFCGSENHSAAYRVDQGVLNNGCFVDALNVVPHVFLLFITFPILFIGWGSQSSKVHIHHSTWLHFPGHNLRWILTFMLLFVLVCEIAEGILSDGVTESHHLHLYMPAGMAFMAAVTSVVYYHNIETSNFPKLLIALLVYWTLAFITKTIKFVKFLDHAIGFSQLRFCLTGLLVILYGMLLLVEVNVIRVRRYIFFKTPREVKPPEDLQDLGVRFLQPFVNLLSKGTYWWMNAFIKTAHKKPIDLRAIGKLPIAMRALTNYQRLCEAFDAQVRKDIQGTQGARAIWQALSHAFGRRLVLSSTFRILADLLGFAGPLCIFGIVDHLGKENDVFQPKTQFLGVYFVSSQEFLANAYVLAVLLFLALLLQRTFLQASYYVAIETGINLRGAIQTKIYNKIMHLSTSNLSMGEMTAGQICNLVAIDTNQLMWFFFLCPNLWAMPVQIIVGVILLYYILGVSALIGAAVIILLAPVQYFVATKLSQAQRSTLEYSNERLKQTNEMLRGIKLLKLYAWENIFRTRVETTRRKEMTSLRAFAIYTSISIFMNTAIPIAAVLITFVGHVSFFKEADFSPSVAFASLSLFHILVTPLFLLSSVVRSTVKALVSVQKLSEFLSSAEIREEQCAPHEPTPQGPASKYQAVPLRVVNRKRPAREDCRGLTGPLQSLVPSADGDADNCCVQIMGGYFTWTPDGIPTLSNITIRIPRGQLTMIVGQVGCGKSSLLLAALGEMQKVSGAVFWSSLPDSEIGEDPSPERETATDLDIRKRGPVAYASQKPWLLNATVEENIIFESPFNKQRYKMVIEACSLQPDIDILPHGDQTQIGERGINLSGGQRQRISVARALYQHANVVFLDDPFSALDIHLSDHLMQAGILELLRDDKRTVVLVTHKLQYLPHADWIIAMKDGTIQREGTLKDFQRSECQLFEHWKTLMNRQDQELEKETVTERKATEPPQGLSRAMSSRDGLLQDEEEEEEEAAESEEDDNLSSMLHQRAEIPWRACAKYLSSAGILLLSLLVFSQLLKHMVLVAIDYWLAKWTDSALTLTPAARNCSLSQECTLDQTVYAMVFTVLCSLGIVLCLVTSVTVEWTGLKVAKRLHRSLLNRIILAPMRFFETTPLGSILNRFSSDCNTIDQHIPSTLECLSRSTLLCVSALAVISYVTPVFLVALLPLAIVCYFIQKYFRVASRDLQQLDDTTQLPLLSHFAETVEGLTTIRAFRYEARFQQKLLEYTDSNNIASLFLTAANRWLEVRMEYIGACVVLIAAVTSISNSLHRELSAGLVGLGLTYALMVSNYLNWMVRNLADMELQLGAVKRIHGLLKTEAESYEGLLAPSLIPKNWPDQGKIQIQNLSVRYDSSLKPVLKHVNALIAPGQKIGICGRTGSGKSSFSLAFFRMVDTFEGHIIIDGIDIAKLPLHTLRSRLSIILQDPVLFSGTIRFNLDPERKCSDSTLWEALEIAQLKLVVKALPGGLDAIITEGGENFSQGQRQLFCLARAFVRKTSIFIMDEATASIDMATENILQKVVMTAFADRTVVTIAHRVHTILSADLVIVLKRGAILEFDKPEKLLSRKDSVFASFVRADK
Procedure: Defolliculated Xenopus oocytes were injected with 100 mL of cRNA at 0.02-0.4 μg/μL for Kir 6.2 and SUR 1 expression, and recorded 2-4 days later.
For electrophysiology, single oocytes were placed in a 0.3-mL perfusion chamber and impaled with two standard microelectrodes (1-2.5 M.Q. resistance) filled with 3 M KCl and voltage clamped with a Dagan CA-1 amplifier, in symmetrical potassium solution containing (in mM) (90 KCl, 1.8 CaCl2, 1 mM MgCl2, 5 Hepes, pH 7.4 with KOH). Stimulation of the preparation, data acquisition, and analysis were performed using pClamp software (Axon Instruments). Currents were recorded in this potassium symmetrical control condition. KATP channel activity was evaluated by intracellular ATP depletion by 3 mM of sodium azide.
For Kir 6.2 and SUR 1 expression defolliculated Xenopus oocytes were injected with 100 mL of cRNA at 0.02-0.4 μg/μL, and currents were recorded after 2-4 days. […] Currents were recorded in the potassium symmetrical control condition. KATP channel activity was evaluated by intracellular ATP depletion by 3 mM of sodium azide.
current was first recorded in control condition (symmetrical potassium solution). […]

Test [3] deals with cortical neurons. Briefly: Oxygen glucose deprivation (OGD) model, neuronal death assessed by Hoechst staining. It is filed as cell-based, mouse. The settings on record: glibenclamide 10 μM applied 30 min before MLC901 1 μg/mL. As for the experimental part:
Time-pregnant (E14) C57B16/J mice were anesthetized with isopentane followed by cervical dislocation as previously described (Heurteaux et al., 2010). Fetuses were removed and placed in cold HBSS^+ solution. Cerebral cortices were dissected in cold HBSS^+ solution and the meninges were removed. Cortical samples were cut in small pieces and were gently triturated with a fire-polished glass Pasteur pipette in 8 ml HBSS^+ solution. The mix was filtered (40 μm filter) and centrifuged at 800 rpm for 8 min. The supernatant was removed and the pellet was dissolved in 2 ml culture medium. Cells were plated on poly-D-lysine (Sigma-Aldrich Chimie, St Quentin Fallavier, France)-coated 12 well (24 mm diameter) plates with glass coverslips (12 mm diameter) (CML, Nemours, France) at a density of 1×10^6 cells/well. Cultures were maintained at 37° C. in a humidified 95% air/5% CO2 atmosphere incubator in Neurobasal supplemented with B27, Glutamax, 100 units/ml penicillin, and 100 µg/ml streptomycin and used for experiments up to 12 days. Glial growth was suppressed by addition of 5-Fluoro-2-deoxyuridine (2 μM) and Uridine (2 μM) during the second day of culture.
OGD experiments were performed on primary mouse cortical neurons seeded at a density of 1,000,000 cells/35-mm dish after 4 days of culture (Goldberg and Choi, 1993). […]

The subject of test [4] is cortical neurons. The test can be described thus: Membrane hyperpolarization associated with neuroprotection. It counts as cell-based, mouse.

T1 sequence (P70673 whole entry): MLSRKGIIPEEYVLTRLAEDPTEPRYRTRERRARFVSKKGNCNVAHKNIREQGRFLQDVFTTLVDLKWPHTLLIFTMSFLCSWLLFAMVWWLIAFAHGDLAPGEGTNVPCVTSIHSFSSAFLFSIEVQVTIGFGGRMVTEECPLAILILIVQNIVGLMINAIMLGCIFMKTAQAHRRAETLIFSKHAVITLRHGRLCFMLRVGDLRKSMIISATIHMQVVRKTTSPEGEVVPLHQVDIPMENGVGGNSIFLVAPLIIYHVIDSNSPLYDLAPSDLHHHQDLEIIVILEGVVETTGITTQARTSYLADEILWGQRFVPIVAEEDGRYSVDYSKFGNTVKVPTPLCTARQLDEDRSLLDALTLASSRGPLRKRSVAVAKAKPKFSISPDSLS
T1 sequence (Q09429 whole entry): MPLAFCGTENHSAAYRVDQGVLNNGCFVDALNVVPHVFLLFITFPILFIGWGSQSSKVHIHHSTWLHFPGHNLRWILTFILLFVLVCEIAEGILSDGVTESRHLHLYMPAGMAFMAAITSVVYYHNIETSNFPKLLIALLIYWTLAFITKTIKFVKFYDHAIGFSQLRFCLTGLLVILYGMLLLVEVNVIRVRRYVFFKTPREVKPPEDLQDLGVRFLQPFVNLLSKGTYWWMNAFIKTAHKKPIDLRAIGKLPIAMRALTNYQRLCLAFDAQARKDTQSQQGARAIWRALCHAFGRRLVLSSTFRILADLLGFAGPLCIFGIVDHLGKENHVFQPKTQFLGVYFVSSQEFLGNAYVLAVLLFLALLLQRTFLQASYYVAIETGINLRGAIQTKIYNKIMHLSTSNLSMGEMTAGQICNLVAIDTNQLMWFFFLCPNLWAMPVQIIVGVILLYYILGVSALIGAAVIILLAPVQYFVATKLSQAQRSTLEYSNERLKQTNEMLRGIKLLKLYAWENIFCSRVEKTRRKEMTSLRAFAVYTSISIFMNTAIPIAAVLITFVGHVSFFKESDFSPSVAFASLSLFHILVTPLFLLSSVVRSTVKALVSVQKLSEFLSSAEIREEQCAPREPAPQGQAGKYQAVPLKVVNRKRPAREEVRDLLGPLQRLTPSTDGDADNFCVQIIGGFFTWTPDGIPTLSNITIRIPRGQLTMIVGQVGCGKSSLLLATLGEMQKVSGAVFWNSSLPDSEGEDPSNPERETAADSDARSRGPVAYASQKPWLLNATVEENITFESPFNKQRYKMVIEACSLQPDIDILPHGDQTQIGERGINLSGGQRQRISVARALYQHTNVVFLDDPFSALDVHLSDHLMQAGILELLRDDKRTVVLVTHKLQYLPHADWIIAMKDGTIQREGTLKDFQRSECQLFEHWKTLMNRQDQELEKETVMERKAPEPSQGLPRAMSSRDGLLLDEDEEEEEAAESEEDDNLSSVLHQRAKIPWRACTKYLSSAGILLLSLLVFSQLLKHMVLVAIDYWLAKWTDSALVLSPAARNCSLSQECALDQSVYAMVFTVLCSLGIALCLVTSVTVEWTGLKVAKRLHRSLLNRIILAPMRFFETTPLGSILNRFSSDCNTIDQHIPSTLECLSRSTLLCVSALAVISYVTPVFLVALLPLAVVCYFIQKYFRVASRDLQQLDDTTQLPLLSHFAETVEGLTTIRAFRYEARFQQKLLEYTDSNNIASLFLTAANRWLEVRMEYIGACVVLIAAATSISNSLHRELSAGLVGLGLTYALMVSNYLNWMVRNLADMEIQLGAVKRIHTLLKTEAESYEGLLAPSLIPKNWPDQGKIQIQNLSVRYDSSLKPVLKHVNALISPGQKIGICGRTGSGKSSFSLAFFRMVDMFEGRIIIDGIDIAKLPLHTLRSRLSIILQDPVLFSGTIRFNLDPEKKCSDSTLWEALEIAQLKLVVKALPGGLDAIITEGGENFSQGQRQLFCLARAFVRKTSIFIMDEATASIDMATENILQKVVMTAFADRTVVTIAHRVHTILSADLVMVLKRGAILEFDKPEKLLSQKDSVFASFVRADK

For `CC(N=C(NC#N)Nc1ccncc1)C(C)(C)C` (stereo not shown) [pinacidil, N-cyano-N′-pyridin-4-yl-N″-(1,2,2-trimethylpropyl)guanidine], the “KATP current in INS-R9 cells, combination with MLC901” value in test [1] is recorded as “additive effect”. Further, the “amplitude of the azide-induced KATP channel current” value in test [2] is “amplified”.
`COc1ccc(Cl)cc1C(=O)NCCc1ccc(S(=O)(=O)NC(=O)NC2CCCCC2)cc1` [glibenclamide]: in test [3], the “effect on the protection induced by MLC901 against OGD damage” value was “inhibited the protection induced by MLC901”. Moreover, the “effect on MLC901-induced hyperpolarization” value in test [4] is given as “antagonized”.
